# Experimental data as given in PubChem BioAssay AID276 (DTP/NCI, 2004).
# Where “and” joins values, the source holds several entries; their conditions need not be identical. Equal entries are not always repeated. Inconclusive results and toxic doses are left out.
# System: B6C3F1 mice, Lewis lung carcinoma iv, survival T/C
# Experiment: NCI In Vivo Anticancer Drug Screen. Data for tumor model Lewis Lung Carcinoma (intravenous) in B6C3F1 mice
# Settings: endpoint: median survival time, schedule: Q01DX009 (ip), higher = longer survival
# Procedure: The antitumor activity of compounds was measured in mice bearing transplantable tumors. Survival or tumor size were measured and the results are expressed as the measurement made in the treated group (T) divided by the measurement made in the vehicle treated control group (C). The tumor model used in this assay is Lewis Lung Carcinoma (intravenous) in B6C3F1 mice
# [1] = dose: 1.56 mg/kg/injection, vehicle: saline with Tween-80
# [2] = dose: 3.12 mg/kg/injection, vehicle: saline with Tween-80
# [3] = dose: 3.12 mg/kg/injection, vehicle: saline
# [4] = dose: 12.5 mg/kg/injection, vehicle: Klucel (hydroxypropylcellulose) (HPC)
# [5] = dose: 25.0 mg/kg/injection, vehicle: Klucel (hydroxypropylcellulose) (HPC)
# [6] = dose: 50.0 mg/kg/injection, vehicle: Klucel (hydroxypropylcellulose) (HPC)
# [7] = dose: 100.0 mg/kg/injection, vehicle: Klucel (hydroxypropylcellulose) (HPC)
# [8] = dose: 200.0 mg/kg/injection, vehicle: Klucel (hydroxypropylcellulose) (HPC)
# [9] = dose: 12.5 mg/kg/injection, vehicle: saline with Tween-80
# [10] = dose: 25.0 mg/kg/injection, vehicle: saline with Tween-80
# [11] = dose: 50.0 mg/kg/injection, vehicle: saline with Tween-80
# [12] = dose: 100.0 mg/kg/injection, vehicle: saline with Tween-80
# [13] = dose: 400.0 mg/kg/injection, vehicle: Klucel (hydroxypropylcellulose) (HPC)
# [14] = dose: 6.25 mg/kg/injection, vehicle: saline
# [15] = dose: 12.5 mg/kg/injection, vehicle: saline
# [16] = dose: 25.0 mg/kg/injection, vehicle: saline
# [17] = dose: 50.0 mg/kg/injection, vehicle: saline
# [18] = dose: 6.25 mg/kg/injection, vehicle: saline with Tween-80
# [19] = dose: 100.0 mg/kg/injection, vehicle: saline
# [20] = dose: 200.0 mg/kg/injection, vehicle: saline
smiles,measurement,setting,value
Cc1cc(NCCCN(C)C)c2ccc3c(ccc4c(NCCCN(C)C)cc(C)nc43)c2n1,T/C,"dose: 0.19 mg/kg/injection, vehicle: saline with Tween-80",101 % of control
same,T/C,"dose: 0.39 mg/kg/injection, vehicle: saline with Tween-80",109 % of control
same,T/C,"dose: 0.78 mg/kg/injection, vehicle: saline with Tween-80",100 % of control
same,T/C,[1],95 % of control
same,T/C,[2],100 % of control
same,T/C,[3],109 % of control
S=C(Nc1ccc(Cl)c(Cl)c1)N1c2ccccc2-n2cccc2C1c1cccnc1 (stereo unspecified),T/C,[4],106 % of control
same,T/C,[5],109 % of control
same,T/C,[6],98 % of control
same,T/C,[7],102 % of control
same,T/C,[8],113 % of control
O=C(Nc1nncs1)c1cccs1,T/C,[9],111 % of control
same,T/C,[10],93 % of control
same,T/C,[11],96 % of control
same,T/C,[12],103 % of control
CC1=C/C(O)CC(=O)Cc2nc(co2)C(=O)N2CCC=C2C(=O)OC(C(C)C)C(C)/C=C\C(=O)NC/C=C\1 (stereo unspecified),T/C,[5],98 % of control
same,T/C,[6],104 % of control
same,T/C,[7],92 % of control
same,T/C,[8],97 % of control
same,T/C,[13],104 % of control
CNc1cccnc1/C=N/NC(N)=S,T/C,[9],104 % of control
same,T/C,[10],122 % of control
same,T/C,[11],90 % of control
Cc1cc(NCCCCCCCCNc2cc(C)nc3cc(N(C)C)ccc23)c2ccc(N(C)C)cc2n1,T/C,"dose: 3.12 mg/kg/injection, vehicle: distilled water + Tween-80 + alcohol",102 % of control
same,T/C,"dose: 6.25 mg/kg/injection, vehicle: distilled water + Tween-80 + alcohol",102 % of control
same,T/C,"dose: 12.5 mg/kg/injection, vehicle: distilled water + Tween-80 + alcohol",109 % of control
same,T/C,"dose: 25.0 mg/kg/injection, vehicle: distilled water + Tween-80 + alcohol",111 % of control and 118 % of control
COc1cc(C2c3cc4c(cc3C(O)C(CO)C2CO)OCO4)cc(OC)c1OC (stereo unspecified),T/C,[4],102 % of control
same,T/C,[5],104 % of control
same,T/C,[6],102 % of control
same,T/C,[7],113 % of control
CCC(C(=O)O)C(=O)O.[NH2-].[NH2-].[Pt+2],T/C,[3],102 % of control
same,T/C,[14],103 % of control
same,T/C,[15],120 % of control
same,T/C,[16],112 % of control and 120 % of control
same,T/C,[17],109 % of control and 118 % of control
COc1cccc2c1C(=O)c1c(O)c3c(c(O)c1C2=O)CC(O)(/C(C)=N/NC(=O)CCCCC(=O)N/N=C(\C)C1(O)Cc2c(O)c4c(c(O)c2C(OC2CC(N)C(O)C(C)O2)C1)C(=O)c1c(OC)cccc1C4=O)CC3OC1CC(N)C(O)C(C)O1 (stereo unspecified),T/C,"dose: 1.5 mg/kg/injection, vehicle: water",120 % of control
same,T/C,"dose: 3.0 mg/kg/injection, vehicle: water",109 % of control
same,T/C,"dose: 6.25 mg/kg/injection, vehicle: water",117 % of control
Cn1c2ccccc2c2ccc3c(c21)C(=O)C=CC3=O,T/C,[1],99 % of control
same,T/C,[2],106 % of control
same,T/C,[18],107 % of control
same,T/C,[9],93 % of control and 101 % of control
Cc1ccc(NCCN(C)C)c2c(=O)c3cc(O)ccc3sc12,T/C,"dose: 12.0 mg/kg/injection, vehicle: Klucel (hydroxypropylcellulose) (HPC)",101 % of control
same,T/C,[4],103 % of control
same,T/C,[5],105 % of control and 121 % of control
same,T/C,[6],121 % of control and 123 % of control
same,T/C,[7],120 % of control and 232 % of control
same,T/C,[8],155 % of control
O=[Te]=O,T/C,"dose: 3.0 mg/kg/injection, vehicle: suspension in saline",121 % of control
same,T/C,[3],102 % of control
same,T/C,"dose: 6.0 mg/kg/injection, vehicle: suspension in saline",101 % of control
same,T/C,[14],100 % of control
same,T/C,"dose: 12.0 mg/kg/injection, vehicle: suspension in saline",101 % of control
same,T/C,[15],106 % of control
same,T/C,"dose: 24.0 mg/kg/injection, vehicle: suspension in saline",106 % of control
same,T/C,"dose: 48.0 mg/kg/injection, vehicle: suspension in saline",115 % of control
Nc1ccc(Cn2ccc3c4c(N)nc(N)nc4ccc32)cc1,T/C,"dose: 1.25 mg/kg/injection, vehicle: saline with Tween-80",105 % of control
same,T/C,"dose: 2.5 mg/kg/injection, vehicle: saline with Tween-80",107 % of control
same,T/C,"dose: 5.0 mg/kg/injection, vehicle: saline with Tween-80",107 % of control
same,T/C,"dose: 10.0 mg/kg/injection, vehicle: saline with Tween-80",108 % of control
CCc1ccc(C2=C(O)C(=O)C(c3ccc(CC)cc3)=C(O)C2=O)cc1,T/C,[2],111 % of control
same,T/C,"dose: 6.0 mg/kg/injection, vehicle: saline with Tween-80",105 % of control
same,T/C,[18],111 % of control
same,T/C,"dose: 12.0 mg/kg/injection, vehicle: saline with Tween-80",103 % of control
same,T/C,[9],117 % of control
same,T/C,[10],114 % of control and 88 % of control
same,T/C,[11],103 % of control
same,T/C,[12],101 % of control
O=CC=O,T/C,[18],102 % of control
same,T/C,[9],116 % of control
same,T/C,[10],107 % of control
same,T/C,[11],107 % of control
same,T/C,[12],95 % of control
same,T/C,"dose: 200.0 mg/kg/injection, vehicle: saline with Tween-80",101 % of control
CCC1CC2CN(CCc3c([nH]c4ccccc34)C(C(=O)OC)(c3cc4c(cc3OC)N(C)C3C(O)(C(=O)OC)C(OC(C)=O)C5(CC)C=CCN6CCC43C65)C2)C1 (stereo unspecified),T/C,"dose: 0.06 mg/kg/injection, vehicle: suspension in saline",103 % of control
same,T/C,"dose: 0.12 mg/kg/injection, vehicle: suspension in saline",102 % of control
same,T/C,"dose: 0.25 mg/kg/injection, vehicle: suspension in saline",108 % of control
same,T/C,"dose: 0.5 mg/kg/injection, vehicle: suspension in saline",103 % of control
same,T/C,"dose: 1.0 mg/kg/injection, vehicle: suspension in saline",112 % of control
same,T/C,"dose: 2.0 mg/kg/injection, vehicle: suspension in saline",102 % of control
O=NN(CCCl)C(=O)NC1CCC(CC2CCC(NC(=O)N(CCCl)N=O)CC2)CC1 (stereo unspecified),T/C,[10],190 % of control
same,T/C,[11],165 % of control
[CH3][Sn]([CH3])([Cl])[S]CCN,T/C,[3],99 % of control
same,T/C,[14],105 % of control
same,T/C,[15],99 % of control
same,T/C,[16],100 % of control
same,T/C,[17],96 % of control
Oc1c(Cl)cc(Cl)cc1C=NCCSc1ccc(Cl)cc1,T/C,[5],94 % of control and 105 % of control
same,T/C,[6],98 % of control and 101 % of control
same,T/C,[7],97 % of control and 101 % of control
same,T/C,[8],97 % of control and 105 % of control
same,T/C,[13],101 % of control
Cc1cc(Nc2ccc3c(c2)OCO3)c2cc3c(cc2n1)OCO3,T/C,[4],100 % of control
same,T/C,[5],98 % of control
same,T/C,[6],98 % of control and 104 % of control
same,T/C,[7],101 % of control
NC(Cn1ccc(=O)c(O)c1)C(=O)O (stereo unspecified),T/C,[15],94 % of control
same,T/C,[16],98 % of control
same,T/C,[17],102 % of control
same,T/C,[19],94 % of control
same,T/C,[20],94 % of control
OC(C1CO1)C(O)C1CO1 (stereo unspecified),T/C,"dose: 0.25 mg/kg/injection, vehicle: saline",101 % of control
same,T/C,"dose: 0.5 mg/kg/injection, vehicle: saline",100 % of control
same,T/C,"dose: 1.0 mg/kg/injection, vehicle: saline",102 % of control
same,T/C,"dose: 2.0 mg/kg/injection, vehicle: saline",109 % of control
Cc1ccc(C2NC(=S)N3C(c4ccc(C)cc4)NC(=S)N23)cc1 (stereo unspecified),T/C,[5],103 % of control
same,T/C,[6],101 % of control
same,T/C,[7],93 % of control
same,T/C,[8],99 % of control
same,T/C,[13],98 % of control
same,T/C,"dose: 800.0 mg/kg/injection, vehicle: Klucel (hydroxypropylcellulose) (HPC)",109 % of control
CC1=NN(c2cccc(S(=O)(=O)O)c2)C(=O)C1N=Nc1cc(Cl)cc(S(=O)(=O)O)c1O.CC1=NN(c2cccc(S(=O)(=O)O)c2)C(=O)C1N=Nc1cc(Cl)cc(S(=O)(=O)O)c1O.[Cr] (stereo unspecified),T/C,[16],92 % of control
same,T/C,[17],100 % of control
same,T/C,[19],98 % of control
same,T/C,[20],98 % of control
